Marks after values point to notes of the source that are not given here.
How the values were obtained:
[1] = clinical; details: human, in vivo
[2] = human, in vivo

Question: Which results are given for `C=CCN1CC[C@]23c4c5ccc(O)c4O[C@H]2C(=O)CC[C@@]3(O)[C@H]1C5` [naloxone]?
Answer: AUC(0-inf) [1]: 0.0772 ng·h/mL; AUC(0-t) [1]: 0.0681 ng·h/mL; Cmax [1]: 0.0266 ng/mL; Tmax [1]: 45 min; plasma concentration [2]: 68.0 pg/mL; t1/2 (apparent terminal half-life) [2]: 2.21 (61.1)^f h; time for which analyte was quantifiable in plasma [2]: 36 h
